Starred links: 1 amine or outer side, 2 acyl side, 3 side chain; linkers in the order of their positions; H or OH if unused. Positions of bridges follow the written chain, without caps; N, C: chain ends. Non-standard residues stand in square brackets, D forms with d. Residues, ends and D or L forms follow the SMILES beside them. Groups on a side chain read outwards from the residue. *: point of attachment. C18 diacid = O=C(O)CCCCCCCCCCCCCCCCC(=O)*; Dip = N[C@H](C(=O)O)C(c1ccccc1)c1ccccc1; γGlu = O=C(O)[C@H](CCC(=O)[*:2])N[*:1]; Palmitoyl = CCCCCCCCCCCCCCCC(=O)*; NMeF = CN[C@@H](Cc1ccccc1)C(=O)O; NMeT = CN[C@H](C(=O)O)[C@@H](C)O; β3hF = N[C@H](CC(=O)O)Cc1ccccc1; dPen = CC(C)(S)[C@@H](N)C(=O)O; NMeK = CN[C@@H](CCCCN)C(=O)O; Pen = CC(C)(S)[C@H](N)C(=O)O; dNMeK = CN[C@H](CCCCN)C(=O)O; Isovaleryl = CC(C)CC(=O)*; NMeC = CN[C@@H](CS)C(=O)O; hCys = N[C@@H](CCS)C(=O)O; Dap = NC[C@H](N)C(=O)O; AEEA = NCCOCCOCC(=O)O; Ahx = NCCCCCC(=O)O
These molecules were tested against T1, ferroportin (Homo sapiens, UniProt Q9NP59) (assay: FPN activity assay: ferroportin-GFP internalization/degradation in HEK293 cells). Details: Table 6D; ferroportin-GFP internalization/degradation, at least 18 hours incubation; read-out: FPN IC50.
T1 sequence (Q9NP59 1-571): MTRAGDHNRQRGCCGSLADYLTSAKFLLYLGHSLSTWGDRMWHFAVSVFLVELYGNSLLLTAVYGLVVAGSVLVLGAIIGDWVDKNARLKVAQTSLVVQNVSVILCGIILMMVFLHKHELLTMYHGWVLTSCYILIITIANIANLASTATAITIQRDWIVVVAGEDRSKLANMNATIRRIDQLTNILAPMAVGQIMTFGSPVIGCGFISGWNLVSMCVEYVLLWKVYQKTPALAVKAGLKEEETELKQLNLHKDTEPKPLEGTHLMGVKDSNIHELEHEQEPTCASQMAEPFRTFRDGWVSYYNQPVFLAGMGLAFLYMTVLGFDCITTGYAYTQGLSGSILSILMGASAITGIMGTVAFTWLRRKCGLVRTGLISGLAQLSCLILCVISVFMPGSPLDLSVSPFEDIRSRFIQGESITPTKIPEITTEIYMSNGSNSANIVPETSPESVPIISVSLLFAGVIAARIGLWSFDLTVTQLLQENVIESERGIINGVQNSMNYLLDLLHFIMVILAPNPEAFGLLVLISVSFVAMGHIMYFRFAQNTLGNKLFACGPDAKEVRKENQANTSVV
Assay type: cell-based
Parameters: expressed in transfected cells
Protocol: Following internalization, the ferroporin protein is degraded.
A retro inverse peptide is a peptide with a reversed sequence in all D amino acids. An example is that Hy-Glu-Thr-His-NH2 becomes Hy-DHis-DThr-DGlu-NH2. The EC50 of these reference compounds for ferroportin internalization/degradation was determined according to the FPN activity assay described above. These peptides served as control standards.

DC50	Structure (SMILES)
10 to 100 nM	CCCCCCCCCCCCCCCC(=O)NCCCCCC(=O)NCCCC[C@H](NC(=O)C[C@H](Cc1ccccc1)NC(=O)[C@@H](CCCCN)NC(=O)[C@@H](NC(=O)[C@@H]1CSSC[C@H](NC(=O)[C@H](CCC(=O)O)NC(=O)CC(C)C)C(=O)N[C@@H](Cc2c[nH]cn2)C(=O)N[C@@H](C(c2ccccc2)c2ccccc2)C(=O)N2CCC[C@H]2C(=O)N1)[C@@H](C)CC)C(=O)N[C@H](CCCCN)C(N)=O [compound 134] (Isovaleryl-ECH[Dip]PCI[dK][β3hF]K([Ahx-Palmitoyl])[dK]-NH2; disulfide 2-6)

Same assay, conditions: Table 6E; ferroportin-GFP internalization/degradation, at least 18 hours incubation; read-out: FPN IC50

DC50	Structure (SMILES)
> 500 nM	COC(=O)CC[C@H](NC(=O)CC(C)C)C(=O)N(C)[C@H](C(=O)N[C@@H](Cc1c[nH]cn1)C(=O)N[C@H](C(=O)N1CCC[C@H]1C(=O)N[C@H]1CSSC[C@@H](C(=O)N(C)[C@@H](Cc2ccccc2)C(N)=O)NC1=O)C(c1ccccc1)c1ccccc1)[C@@H](C)O [compound 184] (Isovaleryl-E(OMe)[NMeT]H[Dip]PCC[NMeF]-NH2; disulfide 6-7)

Same assay, conditions: ferroportin-GFP HEK293 cells, at least 18 hours; read-out: FPN IC50

Structure (SMILES)	DC50
CC[C@H](C)[C@H](NC(=O)[C@@H]1CSSC[C@H](NC(=O)[C@H](Cc2c[nH]cn2)NC(=O)[C@@H](NC(=O)[C@H](CCC(=O)O)NC(=O)CC(C)C)[C@@H](C)O)C(=O)N2CCC[C@H]2C(=O)N1)C(=O)N[C@H](CCCCN)C(=O)N[C@H](CC(=O)N[C@@H](CCCCNC(=O)COCCOCCNC(=O)COCCOCCNC(=O)CC[C@H](NC(=O)CCCCCCCCCCCCCCCCC(=O)O)C(=O)O)C(=O)N[C@H](CCCCN)C(N)=O)Cc1ccccc1 [Compd 33] (Isovaleryl-ETHCPCI[dK][β3hF]K([AEEA-AEEA-γGlu-C18 diacid])[dK]-NH2; disulfide 4-6)	> 500 nM
CCCCCCCCCCCCCCCC(=O)NCCCCCC(=O)NCCCC[C@H](NC(=O)[C@@H](NC(=O)[C@@H]1CSSC[C@H](NC(C)=O)C(=O)N[C@@H](CCC(=O)O)C(=O)N[C@@H]([C@@H](C)O)C(=O)N[C@@H](Cc2c[nH]cn2)C(=O)N[C@@H](C(c2ccccc2)c2ccccc2)C(=O)N2CCC[C@H]2C(=O)N1)[C@@H](C)CC)C(=O)N[C@H](CC(N)=O)Cc1ccccc1 [Compd 9] (Ac-CETH[Dip]PCIK([Ahx-Palmitoyl])[β3hF]-NH2; disulfide 1-7)	100 to 500 nM
CCCCCCCCCCCCCCCC(=O)NCCCCCC(=O)NCCCC[C@H](NC(=O)[C@@H](NC(=O)[C@@H]1CSSC(C)(C)[C@H](N)C(=O)N[C@@H](CCC(=O)O)C(=O)N[C@@H]([C@@H](C)O)C(=O)N[C@@H](Cc2c[nH]cn2)C(=O)N[C@@H](C(c2ccccc2)c2ccccc2)C(=O)N2CCC[C@H]2C(=O)N1)[C@@H](C)CC)C(=O)N[C@H](CC(N)=O)Cc1ccccc1 [Compd 11] (H-[Pen]ETH[Dip]PCIK([Ahx-Palmitoyl])[β3hF]-NH2; disulfide 1-7)	> 500 nM
CCCCCCCCCCCCCCCC(=O)NCCCCCC(=O)NCCCC[C@H](NC(=O)C[C@H](Cc1ccccc1)NC(=O)[C@@H]1CSSC[C@@H](NC(=O)CC(C)C)C(=O)N[C@@H]([C@@H](C)O)C(=O)N[C@@H](Cc2c[nH]cn2)C(=O)N[C@@H](C(c2ccccc2)c2ccccc2)C(=O)N2CCC[C@H]2C(=O)N[C@@H](C)C(=O)N[C@@H]([C@@H](C)CC)C(=O)N1)C(=O)N[C@H](CCCCN)C(N)=O [compound 107] (Isovaleryl-[dC]TH[Dip]PAIC[β3hF]K([Ahx-Palmitoyl])[dK]-NH2; disulfide 1-8)	10 to 100 nM
CC[C@H](C)[C@H](NC(=O)[C@@H]1CSSC[C@H](NC(=O)[C@@H](NC(=O)[C@H](Cc2c[nH]cn2)NC(=O)[C@@H](NC(=O)[C@H](CCC(=O)O)NC(=O)CC(C)C)[C@@H](C)O)C(c2ccccc2)c2ccccc2)C(=O)N1)C(=O)N[C@H](CCCCN)C(=O)N[C@H](CC(=O)N[C@@H](CCCCNC(=O)COCCOCCNC(=O)COCCOCCNC(=O)CCCCCNC(=O)CCCCCCCCCCCCCCCCC(=O)O)C(=O)N[C@H](CCCCN)C(N)=O)Cc1ccccc1 [Compd 25] (Isovaleryl-ETH[Dip]CCI[dK][β3hF]K([AEEA-AEEA-Ahx-C18 diacid])[dK]-NH2; disulfide 5-6)	100 to 500 nM
CCCCCCCCCCCCCCCC(=O)NCCCCCC(=O)NCCCC[C@H](NC(=O)[C@@H](NC(=O)[C@@H]1CCSSCC[C@H](NC(=O)CC(C)C)C(=O)N[C@@H](CCC(=O)O)C(=O)N[C@@H]([C@@H](C)O)C(=O)N[C@@H](Cc2c[nH]cn2)C(=O)N[C@@H](C(c2ccccc2)c2ccccc2)C(=O)N2CCC[C@H]2C(=O)N1)[C@@H](C)CC)C(=O)N[C@H](CC(N)=O)Cc1ccccc1 [Compd 15] (Isovaleryl-[hCys]ETH[Dip]P[hCys]IK([Ahx-Palmitoyl])[β3hF]-NH2; disulfide 1-7)	> 500 nM

Further lines, results first:

DC50	Structure (SMILES)
100 to 500 nM	CCCCCCCCCCCCCCCC(=O)NCCCCCC(=O)NCCCC[C@H](NC(=O)C[C@H](Cc1ccccc1)NC(=O)[C@@H]1CSSC(C)(C)[C@@H](NC(=O)CC(C)C)C(=O)N[C@@H]([C@@H](C)O)C(=O)N[C@@H](Cc2c[nH]cn2)C(=O)N[C@@H](C(c2ccccc2)c2ccccc2)C(=O)N2CCC[C@H]2C(=O)N[C@@H](C)C(=O)N[C@@H]([C@@H](C)CC)C(=O)N1)C(=O)N[C@H](CCCCN)C(N)=O [compound 103] (Isovaleryl-[dPen]TH[Dip]PAIC[β3hF]K([Ahx-Palmitoyl])[dK]-NH2; disulfide 1-8)
100 to 500 nM	CCCCCCCCCCCCCCCC(=O)NCCCCCC(=O)NCCCC[C@H](NC(=O)[C@@H](NC(=O)[C@@H]1CSSC[C@H](NC(=O)CC(C)C)C(=O)N[C@@H](CCC(=O)O)C(=O)N[C@@H]([C@@H](C)O)C(=O)N[C@@H](Cc2c[nH]cn2)C(=O)N[C@@H](C(c2ccccc2)c2ccccc2)C(=O)N2CCC[C@H]2C(=O)N1)[C@@H](C)CC)C(=O)N[C@H](CC(N)=O)Cc1ccccc1 [Compd 10] (Isovaleryl-CETH[Dip]PCIK([Ahx-Palmitoyl])[β3hF]-NH2; disulfide 1-7)
1 to 10 nM	CCCCCCCCCCCCCCCC(=O)NCCCCCC(=O)NCCCC[C@H](NC(=O)C[C@H](Cc1ccccc1)NC(=O)[C@@H](CCCCN)NC(=O)[C@@H](NC(=O)[C@H](C)NC(=O)[C@H]1CSSC[C@H](NC(=O)[C@H](CCC(=O)O)NC(=O)CC(C)C)C(=O)N[C@@H](Cc2c[nH]cn2)C(=O)N[C@@H](C(c2ccccc2)c2ccccc2)C(=O)N1)[C@@H](C)CC)C(=O)N[C@H](CCCCN)C(=O)N[C@@H](C)C(N)=O [Compd 46] (Isovaleryl-ECH[Dip][dC]AI[dK][β3hF]K([Ahx-Palmitoyl])[dK]A-NH2; disulfide 2-5)
100 to 500 nM	CC[C@H](C)[C@H](NC(=O)[C@@H]1CSSC[C@H](NC(=O)[C@@H](NC(=O)[C@H](Cc2c[nH]cn2)NC(=O)[C@@H](NC(=O)[C@H](CCC(=O)O)NC(=O)CC(C)C)[C@@H](C)O)C(c2ccccc2)c2ccccc2)C(=O)N1)C(=O)N[C@H](CCCCN)C(=O)N[C@H](CC(=O)N[C@@H](CCCCNC(=O)COCCOCCNC(=O)COCCOCCNC(=O)CC[C@H](NC(=O)CCCCCCCCCCCCCCCCC(=O)O)C(=O)O)C(=O)N[C@H](CCCCN)C(N)=O)Cc1ccccc1 [Compd 34] (Isovaleryl-ETH[Dip]CCI[dK][β3hF]K([AEEA-AEEA-γGlu-C18 diacid])[dK]-NH2; disulfide 5-6)

Same assay, conditions: ferroportin-GFP internalization/degradation, HEK293 cells; Table 6E; read-out: FPN IC50

DC50	Structure (SMILES)
100 to 500 nM	CC(C)CC(=O)N[C@@H](CCC(=O)O)C(=O)N[C@H](C(=O)N[C@@H](Cc1c[nH]cn1)C(=O)N[C@H](C(=O)N1CCC[C@H]1C(=O)N[C@@H]1C(=O)N[C@H](C(=O)N(C)[C@@H](CCCCNC(=O)COCCOCCNC(=O)COCCOCCNC(=O)[C@H](CN)NC(=O)CCCCCCCCCCCCCCCCC(=O)O)C(=O)N[C@H](CC(=O)N[C@H](CCCCN)C(N)=O)Cc2ccccc2)C(C)(C)SSC1(C)C)C(c1ccccc1)c1ccccc1)[C@@H](C)O [compound 273] (Isovaleryl-ETH[Dip]P[Pen][Pen][NMeK]([AEEA-AEEA-Dap-C18 diacid])[β3hF][dK]-NH2; disulfide 6-7)
10 to 100 nM	CC(C)CC(=O)N[C@@H](CCC(=O)O)C(=O)N[C@H](C(=O)N[C@@H](Cc1c[nH]cn1)C(=O)N[C@H](C(=O)N1CCC[C@H]1C(=O)N[C@H]1CSSC[C@@H](C(=O)N(C)[C@@H](CCCCNC(=O)COCCOCCNC(=O)COCCOCCNC(=O)[C@H](CN)NC(=O)CCCCCCCCCCCCCCCCC(=O)O)C(=O)N(C)[C@@H](Cc2ccccc2)C(=O)N(C)[C@@H](CCCCN)C(N)=O)N(C)C1=O)C(c1ccccc1)c1ccccc1)[C@@H](C)O [compound 277] (Isovaleryl-ETH[Dip]PC[NMeC][NMeK]([AEEA-AEEA-Dap-C18 diacid])[NMeF][NMeK]-NH2; disulfide 6-7)
100 to 500 nM	CC(=O)NCCCC[C@H](C(N)=O)N(C)C(=O)C[C@H](Cc1ccccc1)NC(=O)[C@H](CCCCNC(=O)COCCOCCNC(=O)COCCOCCNC(=O)[C@H](CN)NC(=O)CCCCCCCCCCCCCCCCC(=O)O)N(C)C(=O)[C@@H]1CSSC[C@H](NC(=O)[C@@H]2CCCN2C(=O)[C@@H](NC(=O)[C@H](Cc2c[nH]cn2)NC(=O)[C@@H](NC(=O)[C@H](CCC(=O)O)NC(=O)CC(C)C)[C@@H](C)O)C(c2ccccc2)c2ccccc2)C(=O)N1 [compound 267] (Isovaleryl-ETH[Dip]PCC[NMeK]([AEEA-AEEA-Dap-C18 diacid])[β3hF][dNMeK](Ac)-NH2; disulfide 6-7)
